Earlier results in patent US12364698B2 (Janssen Pharmaceutica NV, priority 2015, dated 2025).

Details: at a pH of about 7

For `C=CC(=O)N1CCC[C@@H](n2nc(-c3ccc(Oc4ccccc4)cc3)c3c(N)ncnc32)C1` [Ibrutinib, 1-[(3R)-3-[4-amino-3-(4-phenoxyphenyl)-1H-pyrazolo[3,4 d]pyrimidin-1-yl]-1-piperidinyl]-2-propen-1-one], the partition coefficient is given as “about 4”.
